{"source": "patent US20100130579A1", "about": "“CANCER THERAPY” (Georgetown University, priority 2006, published 2010)", "assay_type_in_all_cases": "cell-based, human", "key": {"[1]": {"system": "cyclin D1", "experiment": "Immunofluorescence staining of cyclin D1 localization", "details": "PC3 cells, 2 μg/ml, 2 days", "procedure": "FIGS. 3A-3C. Mahanine down-regulates cyclin D1 protein in prostate cancer cells. FIG. 3A and FIG. 3B: Western blots showing cyclin D1 protein levels in PC3 (A) and LNCaP (B) cells treated with 0, 1, 2 and 3 μg/ml mahanine for 3 days. Protein lysates (50 μg) from PC3 and LNCaP cells were resolved on 12% SDS-PAGE, and immunoblots were probed with antibodies to cyclin D1. All immunoblots were re-probed with β-actin antibodies to ensure equal loading. Representative photographs from an experiment that was repeated thrice. Quantitative analyses of relative levels of cyclin D1 proteins are shown on the right panels. […] FIG. 3C: PC3 cells were plated on chamber slides and treated with or without 2 μg/ml mahanine for 2 days. Cells were then fixed in methanol, incubated with cyclin D1 antibody overnight, Alexi Fluor-conjugated secondary antibodies for 1 hour and counter stained with propidium iodide (PI). Slides were then mounted and examined using a fluorescence microscope. Photographs were taken at the same magnification (×20) and then transported to Photoshop. Representative photographs from an experiment that was repeated twice.\nImmunofluorescence staining: PC3 cells were plated onto chamber slides and treated with vehicle or mahanine (2 μg/ml) for 2 days. The cells were fixed in methanol, air-dried, and re-hydrated with PBS. […]"}, "[2]": {"system": "cyclin D1 promoter", "experiment": "Cyclin D1 promoter activity (luciferase) assay", "details": "PC3 cells", "procedure": "FIGS. 6A-6B. Mahanine regulates the transcriptional activity of cyclin D1 and RASSF1A siRNA prevents mahanine-induced repression of cyclin D1 transcriptional activity. FIG. 6A: PC3 cells were transfected with 200 ng of full-length cyclin D1 promoter luciferase plasmids (−1745cyclin D1-Luc) or basic luciferase (PA3-Luc) plasmids and 10 ng of Renilla luciferase (pRL-TK-Luc) plasmids. Twenty-four hours after transfection cells were treated with 0, 1 and 2 μg/ml mahanine for 48 hours in normal growth media. FIG. 6B: PC3 cells were transfected with 200 ng of full-length cyclin D1 promoter luciferase plasmids or basic luciferase plasmids and 10 ng of Renilla luciferase (pRL-TK-Luc) plasmids with 200 ng of RASSF1A or RASSF1A siRNA with or without 2 μg/ml mahanine for 48 hours in normal growth media. After treatment, cells were harvested, and luciferase assays were performed. Relative cyclin D1 promoter activity was determined after normalization with Renilla luciferase activity. […]\nCyclin D1 promoter activity assay: PC3 cells were transfected with 200 ng of cyclin D1 promoter-luciferase (−1745-cyclin D1-Luc) (35) construct using GeneJammer transfection reagent (Stratagene, La Jolla, Calif.). […] After 48 hours, luciferase activity was measured in cell lysates in a microplate luminometer using the Dual Luciferase Assay kit (Promega, Madison, Wis.) according to the manufacturer's protocol. […]"}, "[3]": {"system": "cyclin B1", "experiment": "RT-PCR of cyclin B1 mRNA in prostate cancer cells", "details": "PC3 or LNCaP cells, mahanine treatment", "procedure": "FIG. 5. RASSF1A down-regulates cyclin D1 expression in prostate cancer cells but not other cyclins. […] RNA was extracted, and RT-PCR assays were performed to detect RASSF1A, cyclin A1, B1, D1, E1 and GAPDH mRNAs. Representative photograph from an experiment that was repeated thrice. Quantitative estimations of relative levels of cyclin D1 and RASSF1A mRNAs were determined by densitometric measurements of RT-PCR gels from three independent experiments after normalization with GAPDH.\nGenes of interest were amplified using 500 ng of total RNA reverse-transcribed to cDNA using a Superscript II kit (Invitrogen) with random hexamers. Human-specific primers were designed using the Primer Quest program and purchased from Integrated DNA Technologies, Inc (Coralville, Iowa). […] After amplification, PCR products were separated on 1.5% agarose gels and visualized by ethidium bromide fluorescence using the Fuji LAS-1000 Imager. […] Band intensities were quantified by using ImageJ software (NIH, Bethesda, Md.)."}}, "data": [{"smiles": "CC(C)=CCC[C@@]1(C)C=Cc2c(c(C)cc3c2[nH]c2cc(O)ccc23)O1", "note": "[mahanine]", "values": [{"measurement": "nuclear localization of cyclin D1", "setting": "[1]", "value": "reduced and/or prevented the nuclear localization"}, {"measurement": "cyclin D1 promoter activity", "setting": "[2]; 1 and 2 μg/ml mahanine, 48 hours, P<0.01", "value": "decreased cyclin D1 promoter activity in a dose-dependent manner"}, {"measurement": "cyclin D1 promoter activity relative to basic vector transfected cells", "setting": "[2]; full-length cyclin D1 promoter luciferase construct", "value": "approximately 20 fold"}, {"measurement": "cyclin B1 expression (RT-PCR)", "setting": "[3]", "value": "did not alter the expression"}]}]}
